In ChEMBL document CHEMBL6078723, “Novel steroidal β-carboline derivatives as promising antibacterial candidates against methicillin-resistant Staphylococcus aureus” (Eur J Med Chem, 2025) one finds MBC and MIC data, which are given here for 18 molecules.

Holding throughout (assay type): functional
Experiment [1] has as its system Staphylococcus aureus. Nature of the experiment: Bactericidal activity against Staphylococcus aureus CGMCC1.8721 by CLSI based method.
Experiment [2] has as its system Staphylococcus aureus. Nature of the experiment: Bactericidal activity against methicillin-resistant Staphylococcus aureus CGMCC1.12409 by CLSI based method.
The subject of experiment [3] is Staphylococcus aureus. The experiment in a line: Antibacterial activity against methicillin-resistant Staphylococcus aureus ATCC 43300.
Experiment [4] has as its system Staphylococcus aureus. The experiment in a line: Antibacterial activity against methicillin-resistant Staphylococcus aureus ATCC 33591.
Experiment [5] has as its system Staphylococcus aureus. Nature of the experiment: Antibacterial activity against methicillin-resistant Staphylococcus aureus CGMCC1.12409.
In experiment [6] the test system is Staphylococcus aureus. The experiment in a line: Bactericidal activity against methicillin-resistant Staphylococcus aureus ATCC 33591 by CLSI based method.
The subject of experiment [7] is Staphylococcus aureus. The experiment in a line: Bactericidal activity against methicillin-resistant Staphylococcus aureus ATCC 43300 by CLSI based method.
In experiment [8] the test system is Staphylococcus aureus. The experiment in a line: Antibacterial activity against Staphylococcus aureus CGMCC1.8721.

As for `COc1ccc2[nH]c3c(CC[C@H](C)[C@H]4CC[C@H]5[C@@H]6[C@H](O)C[C@@H]7C[C@H](O)CC[C@]7(C)[C@H]6C[C@H](O)[C@]45C)[n+](Cc4ccc(OC(F)(F)F)cc4)ccc3c2c1.[Br-]`, the minimum bactericidal concentration (MBC) (in general, the smallest concentration meeting the test's criterion for killing) in experiment [1] was 1 µg/mL; in experiment [2] it was 2 µg/mL; in experiment [6], 4 µg/mL; in experiment [7], 2 µg/mL. Further, the MIC (commonly the smallest concentration in the dilution series that meets the test's criterion for growth inhibition) is 1 µg/mL in experiment [3], 2 µg/mL in experiment [4], 1 µg/mL in experiment [5] and 1 µg/mL in experiment [8].
With `COc1ccc2[nH]c3c(CC[C@H](C)[C@H]4CC[C@H]5[C@@H]6[C@H](O)C[C@@H]7C[C@H](O)CC[C@]7(C)[C@H]6CC[C@]45C)[n+](Cc4cccc(F)c4)ccc3c2c1.[Br-]`, the MIC in experiment [3] was 8 µg/mL; in experiment [4] it was 8 µg/mL; in experiment [5], 8 µg/mL; in experiment [8] it was 4 µg/mL.
With `CC[n+]1ccc2c([nH]c3ccc(OC)cc32)c1CC[C@H](C)[C@H]1CC[C@H]2[C@@H]3CC[C@@H]4C[C@H](O)CC[C@]4(C)[C@H]3CC[C@]12C.[Br-]`, the MIC in experiment [3] is 16 µg/mL; in experiment [4], 32 µg/mL; in experiment [5], 16 µg/mL; in experiment [8], 16 µg/mL.
For the molecule `COc1ccc(OC)c(C[n+]2ccc3c([nH]c4ccc(OC)cc43)c2CC[C@H](C)[C@H]2CC[C@H]3[C@@H]4[C@H](O)C[C@@H]5C[C@H](O)CC[C@]5(C)[C@H]4CC[C@]23C)c1.[Br-]`, the minimal inhibitory concentration (MIC) was determined as 8 µg/mL in experiment [3], 8 µg/mL in experiment [4], 8 µg/mL in experiment [5] and 4 µg/mL in experiment [8].
With `COc1ccc2[nH]c3c(CC[C@H](C)[C@H]4CC[C@H]5[C@@H]6[C@H](O)C[C@@H]7C[C@H](O)CC[C@]7(C)[C@H]6CC[C@]45C)[n+](Cc4cccc(Cl)c4)ccc3c2c1.[Br-]`, the MIC amounted to 16 µg/mL in experiment [3], 32 µg/mL in experiment [4], 16 µg/mL in experiment [5] and 16 µg/mL in experiment [8].
`COc1ccc2[nH]c3c(CC[C@H](C)[C@H]4CC[C@H]5[C@@H]6[C@H](O)C[C@@H]7C[C@H](O)CC[C@]7(C)[C@H]6CC[C@]45C)[n+](Cc4ccc(F)cc4)ccc3c2c1.[Br-]`: the MIC in experiment [3] came out at 4 µg/mL; in experiment [4], 8 µg/mL; in experiment [5], 4 µg/mL; in experiment [8], 4 µg/mL.
`COc1ccc2[nH]c3c(CC[C@H](C)[C@H]4CC[C@H]5[C@@H]6[C@H](O)C[C@@H]7C[C@H](O)CC[C@]7(C)[C@H]6CC[C@]45C)[n+](Cc4ccc(C)cc4)ccc3c2c1.[Br-]`: the MIC in experiment [3], in experiment [4], in experiment [5] and in experiment [8] was 16 µg/mL each time.
On to `CC[n+]1ccc2c([nH]c3ccc(OC)cc32)c1CC[C@H](C)[C@H]1CC[C@H]2[C@@H]3[C@H](O)C[C@@H]4C[C@H](O)CC[C@]4(C)[C@H]3C[C@H](O)[C@]12C.[Br-]`, for which the MIC in experiment [3], in experiment [4], in experiment [5] and in experiment [8] was 16 µg/mL in each case.
For `COc1ccc2[nH]c3c(CC[C@H](C)[C@H]4CC[C@H]5[C@@H]6[C@H](O)C[C@@H]7C[C@H](O)CC[C@]7(C)[C@H]6CC[C@]45C)[n+](Cc4ccccc4C)ccc3c2c1.[Br-]`, the MIC in experiment [3], in experiment [4], in experiment [5] and in experiment [8] was 16 µg/mL throughout.
With `COc1ccc2[nH]c3c(CC[C@H](C)[C@H]4CC[C@H]5[C@@H]6CC[C@@H]7C[C@H](O)CC[C@]7(C)[C@H]6CC[C@]45C)[n+](Cc4ccc(OC(F)(F)F)cc4)ccc3c2c1.[Br-]`, the minimal inhibitory concentration (MIC) in experiment [3] was 16 µg/mL; in experiment [4], 32 µg/mL; in experiment [5] it was 16 µg/mL; in experiment [8] it was 16 µg/mL.
On to `COc1ccc2[nH]c3c(CC[C@H](C)[C@H]4CC[C@H]5[C@@H]6CC[C@@H]7C[C@H](O)CC[C@]7(C)[C@H]6CC[C@]45C)[n+](Cc4ccc(C(F)(F)F)cc4)ccc3c2c1.[Br-]`, for which the minimum inhibitory concentration (MIC) was 16 µg/mL in experiment [3], 32 µg/mL in experiment [4], 16 µg/mL in experiment [5] and 16 µg/mL in experiment [8].
For the molecule `CCCCC[n+]1ccc2c([nH]c3ccc(OC)cc32)c1CC[C@H](C)[C@H]1CC[C@H]2[C@@H]3[C@H](O)C[C@@H]4C[C@H](O)CC[C@]4(C)[C@H]3CC[C@]12C.[Br-]`, the minimum inhibitory concentration (MIC) in experiment [3] was determined as 16 µg/mL; in experiment [4], 16 µg/mL; in experiment [5], 16 µg/mL; in experiment [8], 8 µg/mL.
Take `COc1cccc(C[n+]2ccc3c([nH]c4ccc(OC)cc43)c2CC[C@H](C)[C@H]2CC[C@H]3[C@@H]4[C@H](O)C[C@@H]5C[C@H](O)CC[C@]5(C)[C@H]4CC[C@]23C)c1.[Br-]`: the MIC in experiment [3] worked out at 8 µg/mL; in experiment [4], 8 µg/mL; in experiment [5], 8 µg/mL; in experiment [8], 4 µg/mL.
As to `CCCC[n+]1ccc2c([nH]c3ccc(OC)cc32)c1CC[C@H](C)[C@H]1CC[C@H]2[C@@H]3[C@H](O)C[C@@H]4C[C@H](O)CC[C@]4(C)[C@H]3C[C@H](O)[C@]12C.[Br-]`, the minimum inhibitory concentration (MIC) in experiment [3], in experiment [4], in experiment [5] and in experiment [8] was 16 µg/mL in each case.
Regarding `COc1ccc2[nH]c3c(CC[C@H](C)[C@H]4CC[C@H]5[C@@H]6[C@H](O)C[C@@H]7C[C@H](O)CC[C@]7(C)[C@H]6CC[C@]45C)[n+](Cc4ccc(OC(F)(F)F)cc4)ccc3c2c1.[Br-]`, the minimal inhibitory concentration (MIC) in experiment [3], in experiment [4], in experiment [5] and in experiment [8] was 16 µg/mL each time.
With `COc1ccc2[nH]c3c(CC[C@H](C)[C@H]4CC[C@H]5[C@@H]6[C@H](O)C[C@@H]7C[C@H](O)CC[C@]7(C)[C@H]6CC[C@]45C)[n+](Cc4ccc(Br)cc4)ccc3c2c1.[Br-]`, the MIC in experiment [3] was 16 µg/mL; in experiment [4] it was 32 µg/mL; in experiment [5], 16 µg/mL; in experiment [8] it was 16 µg/mL.
In the case of `COc1ccc2[nH]c3c(CC[C@H](C)[C@H]4CC[C@H]5[C@@H]6[C@H](O)C[C@@H]7C[C@H](O)CC[C@]7(C)[C@H]6CC[C@]45C)[n+](Cc4ccccc4F)ccc3c2c1.[Br-]`, the minimum inhibitory concentration (MIC) stood at 4 µg/mL in experiment [3], 8 µg/mL in experiment [4], 8 µg/mL in experiment [5] and 4 µg/mL in experiment [8].
As to `CCC[n+]1ccc2c([nH]c3ccc(OC)cc32)c1CC[C@H](C)[C@H]1CC[C@H]2[C@@H]3[C@H](O)C[C@@H]4C[C@H](O)CC[C@]4(C)[C@H]3C[C@H](O)[C@]12C.[Br-]`, the minimum inhibitory concentration (MIC) in experiment [3], in experiment [4], in experiment [5] and in experiment [8] was 16 µg/mL each time.
